Where a name gives a salt, the structure may show the parent alone.

This assay deals with T1, HIV integrase (Human immunodeficiency virus type 1 group M subtype B, UniProt P12497, F1332H).
T1 construct: HIV integrase full length gene (J. Virol., 67, 425-437 (1993)) in which phenylalanine at codon 185 was substituted by histidine; made in house; host or cells: Escherichia coli BL21(DE3)
The assay can be described thus: Determination of enzyme (HIV integrase) inhibitory activity. The assay is classed as biochemical. The settings on record: recombinant integrase protein (F185H), donor DNA/target DNA, absorbance at 450 nm. How it is done: HIV integrase full length gene (J. Virol., 67, 425-437 (1993)) in which phenylalanine at codon 185 was substituted by histidine, was inserted between the restriction enzyme NdeI and XhoI sites of plasmid pET21a(+) (Novagen), whereby an integrase expression vector pET21a-IN-F185H was constructed.
Escherichia coli recombinant BL21(DE3) transformed with plasmid pET21a-IN-F185H obtained in (i) was shake cultured at 30° C. in a liquid medium containing ampicillin. When the culture reached the logarithmic growth phase, isopropyl-β-D-thiogalactopyranoside was added to promote expression of integrase gene. The culture was continued for 3 hr to promote accumulation of the integrase protein. The recombinant E. coli was collected in pellets by centrifugal separation and preserved at −80° C.
The E. coli was suspended in Lysis buffer (20 mM HEPES (pH 7.5), 5 mM DTT, 10 mM CHAPS, 10% glycerol) containing 1M sodium chloride and subjected to repeat pressurization and depressurization for rupture, and centrifugal separation at 4° C., 40,000×g, 60 min to recover a water-soluble fraction (supernatant). This was diluted 10-fold with Lysis buffer free of sodium chloride, mixed with SP-Sepharose (Pharmacia Corporation) and stirred at 4° C. for 60 min to allow adsorption of integrase protein to the resin. The resin was washed with Lysis buffer containing 100 mM sodium chloride and the integrase protein was eluted with Lysis buffer containing 1M sodium chloride.
The eluted integrase protein solution was subjected to a Superdex 75 (Pharmacia Corporation) column for gel filtration. The protein was eluted with Lysis buffer containing 1M sodium chloride.
The obtained fractions of the integrase protein were collected and preserved at −80° C.
The following DNA synthesized by Greiner was dissolved in TE buffer (10 mM Tris-hydrochloric acid (pH 8.0), 1 mM EDTA) and mixed with donor DNA, target DNA, and each complementary strand (+ and − strands) to 1 μM. The mixture was heated at 95° C. for 5 min, 80° C. for 10 min, 70° C. for 10 min, 60° C. for 10 min, 50° C. for 10 min and 40° C. for 10 min and kept at 25° C. to give a double stranded DNA, which was used for the test. Donor DNA ([…] attached to the 5′ terminal) Donor + strand: 5′-Biotin-ACCCTTTTAGTCAGTGTGGAAAATCTCTAGCA-3′ (SEQ ID NO:1) Donor − strand: 5′-ACTGCTAGAGATTTTCCACACTGACTAAAAG-3′ (SEQ ID NO:2) Target DNA (+, − strands both having digoxigenin added at 3′ terminal) Target + strand: 5′-TGACCAAGGGCTAATTCACT-Dig-3′ (SEQ ID NO:3) Target − strand: 5′-AGTGAATTAGCCCTTGGTCA-Dig-3′ (SEQ ID NO:4)
The donor DNA was diluted with TE buffer to 10 nM, of which 50 μl was added to each well of streptavidin-coated microtiter plate (Roche) and allowed to adsorb at 37° C. for 60 min. The plate was washed with phosphate buffer (Dulbecco's PBS, Sanko Junyaku Co., Ltd.) containing 0.1% Tween 20 and phosphate buffer. Then, an enzyme reaction mixture (70 μl), a test substance (10 μl) diluted with the reaction mixture and 100 μg/ml integrase protein (10 μl) were added to each well and reacted at 37° C. for 60 min.
Then, 50 nM target DNA (10 μl) was added, reacted at 37° C. for 10 min and washed with phosphate buffer containing 0.1% Tween 20 to stop the reaction.
Then, 100 mU/ml peroxidase labeled anti-digoxigenin antibody solution (Roche, 100 μl) was added, and the mixture was reacted at 37° C. for 60 min, followed by washing with phosphate buffer containing 0.1% Tween 20.
A peroxidase color solution (Bio Rad, 100 μl) was added and allowed to react at room temperature for 4 min. The color reaction was stopped by adding 1N sulfuric acid (100 μl). The absorbance at 450 nm was measured.
The HIV integrase inhibitory activity (IC50) of the compound of the present invention was calculated from the inhibition rate according to the following formula. […]

Regarding `COCCOc1cc2c(cc1Cc1cccc(Cl)c1F)c(=O)c(C(=O)O)cn2[C@H](CO)C(C)C` [Example 4-1, 6-(3-chloro-2-fluorobenzyl)-1-((1S)-1-(hydroxymethyl)-2-methylpropyl)-7-(2-methoxyethoxy)-4-oxo-1,4-dihydroquinoline-3-carboxylic acid], the 50% inhibitory concentration (IC50) (as a rule, the point on the concentration scale where inhibition reaches its midpoint) was determined as 4.4 nM.
Next, `COc1cc2c(cc1Cc1c(F)cccc1Cl)c(=O)c(C(=O)O)cn2[C@H](CO)C(C)C` [Example 7-1, 6-(2-chloro-6-fluorobenzyl)-1-((1S)-1-(hydroxymethyl)-2-methylpropyl)-7-methoxy-4-oxo-1,4-dihydroquinoline-3-carboxylic acid]: 17 nM.
Next, `CNS(=O)(=O)COc1cc2c(cc1Cc1cccc(Cl)c1F)c(=O)c(C(=O)O)cn2[C@H](CO)C(C)C` [Example 4-3, 6-(3-chloro-2-fluorobenzyl)-1-((1S)-1-(hydroxymethyl)-2-methylpropyl)-7-((methylamino)sulfonylmethoxy)-4-oxo-1,4-dihydroquinoline-3-carboxylic acid]: 4.7 nM; `COC[C@@H](CO)n1cc(C(=O)O)c(=O)c2cc(Cc3cccc(Cl)c3F)c(OC)cc21` [Example 2-18, 6-(3-chloro-2-fluorobenzyl)-1-((1R)-1-(hydroxymethyl)-2-methoxyethyl)-7-methoxy-4-oxo-1,4-dihydroquinoline-3-carboxylic acid]: 6 nM; `CCOC(=O)N1CCC(Nc2cc3c(cc2Cc2cccc(Cl)c2F)c(=O)c(C(=O)O)cn3[C@H](CO)C(C)C)CC1` [Example 4-40, 6-(3-chloro-2-fluorobenzyl)-7-(1-(ethoxycarbonyl)piperidin-4-ylamino)-1-((1S)-1-(hydroxymethyl)-2-methylpropyl)-4-oxo-1,4-dihydroquinoline-3-carboxylic acid]: 6.8 nM.
The figure for `CC(C)[C@@H](CO)n1cc(C(=O)O)c(=O)c2cc(Cc3cccc(Cl)c3F)c(N3CCNCC3)cc21` [Example 4-12, 6-(3-chloro-2-fluorobenzyl)-1-((1S)-1-(hydroxymethyl)-2-methylpropyl)-4-oxo-7-(piperazin-1-yl)-1,4-dihydroquinoline-3-carboxylic acid] is 7.3 nM; for `CC(C)[C@@H](CO)n1cc(C(=O)O)c(=O)c2cc(Cc3cccc(Cl)c3F)c(OCCN)cc21` [Example 4-18, 7-(2-aminoethoxy)-6-(3-chloro-2-fluorobenzyl)-1-((1S)-1-(hydroxymethyl)-2-methylpropyl)-4-oxo-1,4-dihydroquinoline-3-carboxylic acid hydrochloride] it is 4.8 nM; for `CC(C)[C@@H](CO)n1cc(C(=O)O)c(=O)c2cc(Cc3cccc(Cl)c3F)c3c(c21)OCCO3` [Example 6-1, 10-(3-chloro-2-fluorobenzyl)-5-((1S)-1-hydroxymethyl-2-methylpropyl)-8-oxo-2,3,5,8-tetrahydro-1,4-dioxa-5-aza-phenanthrene-7-carboxylic acid] it is 5.9 nM.
With `COc1cc2c(cc1Cc1c(O)ccc(Cl)c1F)c(=O)c(C(=O)O)cn2[C@H](CO)C(C)C` [Example 1-3, 6-(3-chloro-2-fluoro-6-hydroxybenzyl)-1-((1S)-1-(hydroxymethyl)-2-methylpropyl)-7-methoxy-4-oxo-1,4-dihydroquinoline-3-carboxylic acid], the IC50 stood at 7.8 nM.
The figure for `CCN1CCN(c2cc3c(cc2Cc2cccc(Cl)c2F)c(=O)c(C(=O)O)cn3[C@H](CO)C(C)C)CC1` [Example 4-15, 6-(3-chloro-2-fluorobenzyl)-7-(4-ethylpiperazin-1-yl)-1-((1S)-1-(hydroxymethyl)-2-methylpropyl)-4-oxo-1,4-dihydroquinoline-3-carboxylic acid] is 11 nM.
The figure for `CC(C)[C@@H](CO)n1cc(C(=O)O)c(=O)c2cc(Cc3cccc(Cl)c3F)c(OCCCCO)cc21` [Example 4-5, 6-(3-chloro-2-fluorobenzyl)-7-(4-hydroxybutoxy)-1-((1S)-1-(hydroxymethyl)-2-methylpropyl)-4-oxo-1,4-dihydroquinoline-3-carboxylic acid] is 3.4 nM.
As for `CC(C)[C@@H](CO)n1cc(C(=O)O)c(=O)c2cc(Cc3cccc(Cl)c3F)c(N3CC[C@@H](N)C3)cc21` [Example 4-39, 7-((3R)-3-aminopyrrolidin-1-yl)-6-(3-chloro-2-fluorobenzyl)-1-((1S)-1-(hydroxymethyl)-2-methylpropyl)-4-oxo-1,4-dihydroquinoline-3-carboxylic acid], the concentration for half-maximal inhibition (IC50) was found to be 9.4 nM.
As for `COCCOc1cc(Cc2cccc(Cl)c2F)cc2c(=O)c(C(=O)O)cn([C@H](CO)C(C)C)c12` [Example 3-4, 6-(3-chloro-2-fluorobenzyl)-1-((1S)-1-(hydroxymethyl)-2-methylpropyl)-8-(2-methoxyethoxy)-4-oxo-1,4-dihydroquinoline-3-carboxylic acid], the concentration for half-maximal inhibition (IC50) was found to be 4.5 nM.
The figure for `COc1cc2c(cc1Cc1ccc(F)cc1C(F)(F)F)c(=O)c(C(=O)O)cn2[C@H](CO)C(C)C` [Example 1-10, 6-(4-fluoro-2-(trifluoromethyl)benzyl)-1-((1S)-1-(hydroxymethyl)-2-methylpropyl)-7-methoxy-4-oxo-1,4-dihydroquinoline-3-carboxylic acid] is 280 nM; for `COc1cc2c(cc1Cc1cc(F)c(F)c(Cl)c1F)c(=O)c(C(=O)O)cn2[C@H](CO)C(C)C` [Example 1-7, 6-(3-chloro-2,4,5-trifluorobenzyl)-1-((1S)-1-(hydroxymethyl)-2-methylpropyl)-7-methoxy-4-oxo-1,4-dihydroquinoline-3-carboxylic acid] it is 5.5 nM.
With `CC(C)[C@@H](CO)n1cc(C(=O)O)c(=O)c2cc(Cc3cccc(Cl)c3F)c(N3CCOCC3)cc21` [Example 4-9, 6-(3-chloro-2-fluorobenzyl)-1-((1S)-1-(hydroxymethyl)-2-methylpropyl)-7-(morpholin-4-yl)-4-oxo-1,4-dihydroquinoline-3-carboxylic acid], the half-maximal inhibitory concentration (IC50) was 6 nM.
Next, `COc1cc2c(cc1Cc1cccc(Cl)c1F)c(=O)c(C(=O)O)cn2[C@H](CO)CSC` [Example 2-3, 6-(3-chloro-2-fluorobenzyl)-1-((1R)-1-(hydroxymethyl)-2-(methylthio)ethyl)-7-methoxy-4-oxo-1,4-dihydroquinoline-3-carboxylic acid]: 6.8 nM; `CC(C)[C@@H](CO)n1cc(C(=O)O)c(=O)c2cc(Cc3cccc(Cl)c3F)c(OCC(F)(F)F)cc21` [Example 4-62, 6-(3-chloro-2-fluorobenzyl)-1-((1S)-1-(hydroxymethyl)-2-methylpropyl)-4-oxo-7-(2,2,2-trifluoroethyloxy)-1,4-dihydroquinoline-3-carboxylic acid]: 5.5 nM.
As to `COCCCOc1cc2c(cc1Cc1cccc(Cl)c1F)c(=O)c(C(=O)O)cn2[C@H](CO)C(C)C` [Example 4-8, 6-(3-chloro-2-fluorobenzyl)-1-((1S)-1-(hydroxymethyl)-2-methylpropyl)-7-(3-methoxypropoxy)-4-oxo-1,4-dihydroquinoline-3-carboxylic acid], the half-inhibitory concentration (IC50) came to 4.7 nM.

The values above are taken from patent publication US7531554B2, “4-oxoquinoline compound and use thereof as HIV integrase inhibitor” (Japan Tobacco Inc., priority 2004, dated 2009).
